From ChEMBL document CHEMBL1126296, “Orally active aldose reductase inhibitors: indazoleacetic, oxopyridazineacetic, and oxopyridopyridazineacetic acid derivatives” (J Med Chem, 1992)
Active and inactive are the calls of the source. The calls are words filed in the database; no cut-off is given here.

Tests used:
[1] = molecular target: Aldo-keto reductase family 1 member B1 (Homo sapiens, UniProt P15121); assay: Inhibitory activity against aldose reductase isolated from human placenta
Rattus norvegicus [2] = assay: In vivo inhibition of sorbitol accumulation in sciatic nerve and lens of diabetic rat at a dose of 25 mg/kg.; format: functional
Rattus norvegicus [3] = assay: In vivo inhibition of sorbitol accumulation in sciatic nerve and lens of diabetic rat at a dose of 10 mg/kg; NS=not significant; format: functional, organism-based; design: dose 10 mg/kg
Rattus norvegicus [4] = assay: In vivo inhibition of sorbitol accumulation in sciatic nerve and lens of diabetic rat at a dose of 100 mg/kg.; format: functional
Rattus norvegicus [5] = assay: In vivo inhibition of sorbitol accumulation in sciatic nerve and lens of diabetic rat at a dose of 10 mg/kg.; format: functional
Rattus norvegicus [6] = assay: In vivo inhibition of sorbitol accumulation in sciatic nerve and lens of diabetic rat at a dose of 25 mg/kg; NS=not significant; format: functional, organism-based; design: dose 25 mg/kg

Row | SMILES | IC50 [1] | inhibition in vivo at 25 mg/kg (Rattus norvegicus [2]) | further results
1 | O=C(O)Cc1nn(Cc2nc3cc(F)cc(F)c3s2)c(=O)c2cccnc12 | 26 nM | 68% | –
2 | O=C(O)Cc1nn(Cc2nc3cc(F)cc(F)c3s2)c2ccc(Cl)cc12 | 110 nM | 69% | –
3 | Cc1c(CC(=O)O)nn(Cc2ccc(Br)cc2F)c(=O)c1C | 290 nM | – | inhibition (Rattus norvegicus [3]): inactive
4 | O=C(O)Cc1nn(Cc2nc3ccccc3s2)c(=O)c2cc3ccccc3cc12 | 46 nM | – | inhibition in vivo at 100 mg/kg (Rattus norvegicus [4]): 48%
5 | O=C(O)Cc1nn(Cc2ccc(Br)cc2F)c(=O)c2ncccc12 | 760 nM | – | inhibition (Rattus norvegicus [6]): inactive
6 | O=C(O)Cc1nn(Cc2nc3cc(C(F)(F)F)ccc3s2)c(=O)c2ccccc12 [ZOPOLRESTAT] | – | – | inhibition in vivo at 10 mg/kg (Rattus norvegicus [5]): 80%
7 | O=C(O)Cc1nn(Cc2nc3cc(C(F)(F)F)ccc3s2)c(=O)c2cccnc12 | 41 nM | 74% | –
8 | O=C(O)Cc1nn(Cc2ccc(Br)cc2F)c(=O)c2c1CCCC2 | 32 nM | 87% | –
9 | O=C(O)Cc1nn(Cc2ccc(Br)cc2F)c2ccccc12 | 6200 nM | – | –
10 | O=C(O)Cc1nn(Cc2nc3cc(F)cc(F)c3s2)c2ccccc12 | 30 nM | 61% | –
11 | O=C(O)Cc1nn(Cc2nc3ccccc3s2)c2ccccc12 | 680 nM | 52% | inhibition in vivo at 100 mg/kg (Rattus norvegicus [4]): 77%
12 | O=C(O)Cc1nn(Cc2nc3ccccc3s2)c2ccc(Cl)cc12 | 58 nM | – | inhibition (Rattus norvegicus [3]): inactive
13 | O=C(O)Cc1nn(Cc2ccc(Br)cc2F)c(=O)c2cc3ccccc3cc12 | 420 nM | – | –
14 | O=C(O)Cc1ccc(=O)n(Cc2nc3cc(C(F)(F)F)ccc3s2)n1 | 340 nM | – | inhibition (Rattus norvegicus [6]): inactive
15 | O=C(O)Cc1nn(Cc2nc3ccccc3s2)c(=O)c2ccccc12 | – | 67% | –
16 | O=C(O)Cc1nn(Cc2nc3cc(C(F)(F)F)ccc3s2)c2ccccc12 | 33 nM | 59% | –
17 | O=C(O)Cc1nn(Cc2nc3cc(C(F)(F)F)ccc3s2)c2ccc(Cl)cc12 | 35 nM | – | inhibition (Rattus norvegicus [6]): inactive
18 | O=C(O)Cc1nn(Cc2nc3ccccc3o2)c2ccc(Cl)cc12 | 100 nM | – | –
19 | O=C(O)Cc1nn(Cc2nc3cc(Br)ccc3s2)c2ccc(Cl)cc12 | 65 nM | 56% | –

The next lines start with results.

Row | IC50 [1] | SMILES | inhibition in vivo at 25 mg/kg (Rattus norvegicus [2]) | further results
20 | < 10 nM | O=C(O)Cc1nn(Cc2nc3cc(F)ccc3s2)c(=O)c2cccnc12 | 64% | –
21 | 3.3 nM | Cc1c(CC(=O)O)nn(Cc2nc(-c3cccc(F)c3F)no2)c(=O)c1C | – | inhibition in vivo at 10 mg/kg (Rattus norvegicus [5]): 26%
22 | 16 nM | Cc1c(CC(=O)O)nn(Cc2nc3cc(C(F)(F)F)ccc3s2)c(=O)c1C | 81% | –
23 | 5 nM | Cc1c(CC(=O)O)nn(Cc2nc3cc(F)cc(F)c3s2)c(=O)c1C | – | inhibition in vivo at 10 mg/kg (Rattus norvegicus [5]): 76%
24 | < 10 nM | O=C(O)Cc1ccc(=O)n(Cc2nc3cc(F)cc(F)c3s2)n1 | 32% | –
25 | 2.1 nM | O=C(O)Cc1nn(Cc2nc3cc(C(F)(F)F)ccc3s2)c(=O)c2ncccc12 | – | inhibition (Rattus norvegicus [3]): inactive
26 | 5.2 nM | O=C(O)Cc1nn(Cc2nc3cc(C(F)(F)F)ccc3s2)c(=O)c2c1CCCC2 | 89% | inhibition in vivo at 10 mg/kg (Rattus norvegicus [5]): 61%
27 | 18 nM | Cc1cc(=O)n(Cc2nc3cc(C(F)(F)F)ccc3s2)nc1CC(=O)O | – | inhibition (Rattus norvegicus [6]): inactive
28 | 4.6 nM | O=C(O)Cc1nn(Cc2nc3cc(F)ccc3s2)c2ccc(Cl)cc12 | 34% | –
29 | 4 nM | O=C(O)Cc1nn(Cc2nc3cc(F)cc(F)c3s2)c(=O)c2c1CCCC2 | – | –
